# Tests used:
# [1] = system: Skin ischemia-reperfusion injury model mouse; experiment: Skin ischemia-reperfusion injury (pressure ulcer) model, wound area; format: in vivo; conditions: odor 100 μl (104 mmol) 30 min before and during 12 hr of pinching the skin between magnets, versus no odor
# Experimental: Skin ischemia-reperfusion injury model mouse was generated as follows according to the method of Uchiyama et al. (Uchiyama et al., Sci Rep 5:9072, 2015). The back hair of C57/BL6N male mice (about 3-month-old) was shaved in the same manner as in Example 1, 2-3 days before the test. On the day of the test, the mice were each placed in a highly sealed cage, and a filter paper scented with 100 μl (104 mmol) of the thiazoline-related compound (2MT) was placed in the breeding cage, and the odor was presented for 30 min. As a control, a filter paper dropped with water was presented for 30 min (no odor). After 30 min, the mouse was taken out from the cage, the dorsal skin was pinched between two circular magnets and the mouse was returned to the highly sealed cage. Furthermore, a filter paper scented with 100 μl (104 mmol) of 2 MT or water was placed in the highly sealed cage, and the mouse was left for 12 hr. […] The condition of the skin on the back, which was pinched between magnets, was recorded by taking photographs every day. Based on the obtained images, the wound area was quantified with image analysis software (Photoshop, Adobe). Furthermore, changes in the core body temperature when the odor was presented under the same conditions as in this Example were measured by the same experimental method as in Example 2.
# C57/BL6N male mice [2] = experiment: Respiratory rate on odor presentation (pulse oximeter); format: in vivo, mouse; conditions: filter paper scented with 271 μmol odor, 20 min
# Experimental: An influence of a thiazoline-related compound and an odor molecule that induces learned fear on the respiratory rate was analyzed. The respiratory rate was analyzed using a pulse oximeter (Mouse Oxplus; STARR Life Science). A pulse oximeter was attached to the neck of C57/BL6N male mice (about 3-month-old) from about 1 week before the test and the mice were acclimated by repeating this operation. The mice were anesthetized with pentobarbital (50 mg/kg, i.p.) 2 days before the test, and the neck hair was depilated with depilatory cream. On the day of testing, an oximeter probe was attached to the shaven neck. After confirming that the signal became stable, the no odor baseline was measured for 10 min, changes in the respiratory rate when the thiazoline-related compound (2MT) or neutral odor (Eugenol; Eug) was presented was measured for 20 min (each n=6). The odors were presented by placing filter papers scented with 271 μmol of odor in the test cage. The oximeter signal was obtained at 1 Hz.
# [3] = system: Trpa1 knockout mice and littermate hetero mice; experiment: Oxygen consumption on odor presentation, Trpa1 knockout and hetero mice; format: in vivo, mouse; conditions: two filter papers scented with 271 μmol
# Experimental: An influence of a thiazoline-related compound on the oxygen consumption was analyzed. The oxygen consumption was analyzed using an energy metabolism measurement device for small animals (ARCO-2000; ARCO SYSTEM). About 3-month-old C57/BL6N male mice were each placed in a measuring chamber and, after acclimation for about 2 hr, a thiazoline-related compound (2MT) was presented. The odors were presented by placing filter papers scented with 100 μl (104 mmol) of odor molecules in the measuring chamber. As a control, an experiment in which a filter paper dropped with saline was presented to the mice was also performed. The oxygen consumption was measured every one min. Mean oxygen consumption was calculated as the mean of 10 min before presenting odor and 20 min after presenting odor.
# The oxygen consumption was measured using an energy metabolism measurement device for small animals as in Example 8.About 3-month to 6-month-old Trpa1 knockout mice and littermate hetero mice were each placed in a measuring chamber of the energy metabolism measurement device for small animals and, after acclimation for about 2 hr, a thiazoline-related compound (2MT) was presented. The odor was presented by placing two filter papers scented with 271 μmol of thiazoline-related compound (2MT) in the measuring chamber.
# C57/BL6N male mice [4] = experiment: Survival time in 4% oxygen after odor presentation; format: in vivo, mouse; conditions: odor 100 μl (104 mmol) presented 50 min before; measured up to 30 min; no odor controls all died within 20 min
# Experimental: About 3-month-old C57/BL6N male mice were each placed in a highly sealed breeding cage, and a filter paper scented with 100 μl (104 mmol) of the thiazoline-related compound (2MT) was placed in the breeding cage, and the odor was presented for 50 min. After the odor was presented, the mice were placed in a tight box in which the oxygen concentration was adjusted to 4%, and the survival time of the mice was measured up to 30 min at maximum. As a control, the survival time of mice presented with a filter paper dropped with water was also measured (no odor). Furthermore, changes in the core body temperature when the odor was presented under the same conditions as in this Example were measured by the same experimental method as in Example 4.
# Interleukin-10 (IL-10) = experiment: Blood IL-10 in LPS sepsis model (ELISA); format: in vivo, mouse; conditions: about 80 mg/kg i.p., 1 hr and 4 hr, versus saline
# Experimental: Lipopolysaccharide (LPS) (0.6 mg/kg) was intraperitoneally administered to male Balb/c mice (about 2-3 months old) to generate a sepsis model. Immediately after the LPS administration, 200 μl (about 80 mg/kg) of a solution prepared by diluting various heterocyclic compounds and isothiocyanate compounds 100 times with saline was intraperitoneally administered. Blood samples were collected 60 min after LPS and compound administration, EDTA plasma was prepared, and the blood level of inflammatory cytokine TNF-a was measured by the ELISA method.
# A sepsis model mouse was prepared by the same method as in Example 18. Immediately after the LPS administration, 200 μl (about 80 mg/kg) of a thiazoline-related compound (2MT) solution prepared by diluting 100 times with saline was intraperitoneally administered. Blood samples were collected 1 hr and 4 hr after administration of LPS and thiazoline-related compound (2MT), EDTA plasma was prepared, and the blood levels of inflammatory cytokine Interleukin-1β (IL-1β), and anti-inflammatory cytokine Interleukin-10 (IL-10) were measured by the ELISA method.
smiles,measurement,setting,value
"CC1=NCCS1 [2MT, 2-methyl-2-thiazoline]",formation of pressure ulcer (wound area),[1],formation of pressure ulcer significantly decreased
same,respiratory rate,C57/BL6N male mice [2],reduced the respiratory rate by about half
same,oxygen consumption per body weight,[3]; Trpa1 knockout mice (Trpa1−/−),the oxygen consumption did not decrease
same,oxygen consumption per body weight,[3]; control mice (Trpa1+/−),the oxygen consumption was decreased
same,survival time in 4% oxygen,C57/BL6N male mice [4],many individuals survived even after 30 min
same,blood concentration of IL-10,Interleukin-10 (IL-10),increased the blood concentration of anti-inflammatory cytokine IL-10

# Reference: US20240382497A1, “PROPHYLACTIC OR THERAPEUTIC AGENT FOR HYPOXIC INJURY, ISCHAEMIA-REPERFUSION INJURY AND INFLAMMATION, CELL PROTECTION AGENT FOR TRANSPLANTATION, AND BIO-PRESERVATION AGENT” (priority 2018, published 2024)
